Source: patent US20040248739A1, “Pyridylpropynyloxyphenyl derivatives for use as herbicides” (priority 2001, published 2004)

How the values were obtained:
Format in all cases: in vivo
Echinochloa (Ds) = test: Pre-emergence herbicidal action (Example B1); settings: 1000 g of active ingredient/ha, after 4 weeks, scale of nine ratings
Method: (§1) Monocotyledonous and dicotyledonous test plants are sown in standard soil in pots. Immediately after sowing, the test compounds, in the form of an aqueous suspension (prepared from a wettable powder (Example F3, b) according to WO 97/34485) or in the form of an emulsion (prepared from an emulsifiable concentrate (Example F1, c) according to WO 97/34485), are applied by spraying in an optimum concentration (500 litres of water/ha). The test plants are then grown in a greenhouse under optimum conditions. After a test duration of 4 weeks, the test is evaluated in accordance with a scale of nine ratings (1=total damage, 9=no action). Ratings of from 1 to 4 (especially from 1 to 3) indicate good to very good herbicidal action. Test plants: Panicum, Echinochloa (Ds), Amaranthus, Chenopodium, Stellaria, Veronica.

Panicum = test: Pre-emergence herbicidal action (Example B1); settings: 1000 g of active ingredient/ha, after 4 weeks, scale of nine ratings
Method: as §1

Chenopodium [1] = test: Post-emergence herbicidal action (Example B2); parameters: key: 1=total damage; 9=no action; Ratings of from 1 to 4 (especially from 1 to 3) indicate good to very good herbicidal action; settings: post-emergence (2- to 3-leaf stage), 1000 g of active ingredient/ha, after 2 to 3 weeks, scale of nine ratings
Method: as §1, with “pots. When the test plants are at the 2- to 3-leaf stage,” for “pots. Immediately after sowing,”, “grown on” for “grown”, “of 2 to 3” for “of 4”, “Panicum, Euphorbia,” for “Panicum, Echinochloa (Ds),”

Amaranthus [2] = test: Post-emergence herbicidal action (Example B2); parameters: key: 1=total damage; 9=no action; Ratings of from 1 to 4 (especially from 1 to 3) indicate good to very good herbicidal action; settings: post-emergence (2- to 3-leaf stage), 1000 g of active ingredient/ha, after 2 to 3 weeks, scale of nine ratings
Method: as §1, with “pots. When the test plants are at the 2- to 3-leaf stage,” for “pots. Immediately after sowing,”, “grown on” for “grown”, “of 2 to 3” for “of 4”, “Panicum, Euphorbia,” for “Panicum, Echinochloa (Ds),”

Veronica [3] = test: Pre-emergence herbicidal action (Example B1); parameters: key: 1=total damage; 9=no action; Ratings of from 1 to 4 (especially from 1 to 3) indicate good to very good herbicidal action; settings: 1000 g of active ingredient/ha, after 4 weeks, scale of nine ratings
Method: as §1

Stellaria [4] = test: Pre-emergence herbicidal action (Example B1); parameters: key: 1=total damage; 9=no action; Ratings of from 1 to 4 (especially from 1 to 3) indicate good to very good herbicidal action; settings: 1000 g of active ingredient/ha, after 4 weeks, scale of nine ratings
Method: as §1

Chenopodium [5] = test: Pre-emergence herbicidal action (Example B1); parameters: key: 1=total damage; 9=no action; Ratings of from 1 to 4 (especially from 1 to 3) indicate good to very good herbicidal action; settings: 1000 g of active ingredient/ha, after 4 weeks, scale of nine ratings
Method: as §1

Amaranthus [6] = test: Pre-emergence herbicidal action (Example B1); parameters: key: 1=total damage; 9=no action; Ratings of from 1 to 4 (especially from 1 to 3) indicate good to very good herbicidal action; settings: 1000 g of active ingredient/ha, after 4 weeks, scale of nine ratings
Method: as §1

Veronica [7] = test: Post-emergence herbicidal action (Example B2); settings: post-emergence (2- to 3-leaf stage), 1000 g of active ingredient/ha, after 2 to 3 weeks, scale of nine ratings
Method: as §1, with “pots. When the test plants are at the 2- to 3-leaf stage,” for “pots. Immediately after sowing,”, “grown on” for “grown”, “of 2 to 3” for “of 4”, “Panicum, Euphorbia,” for “Panicum, Echinochloa (Ds),”

Euphorbia = test: Post-emergence herbicidal action (Example B2); settings: post-emergence (2- to 3-leaf stage), 1000 g of active ingredient/ha, after 2 to 3 weeks, scale of nine ratings
Method: as §1, with “pots. When the test plants are at the 2- to 3-leaf stage,” for “pots. Immediately after sowing,”, “grown on” for “grown”, “of 2 to 3” for “of 4”, “Panicum, Euphorbia,” for “Panicum, Echinochloa (Ds),”

Stellaria [8] = test: Post-emergence herbicidal action (Example B2); settings: post-emergence (2- to 3-leaf stage), 1000 g of active ingredient/ha, after 2 to 3 weeks, scale of nine ratings
Method: as §1, with “pots. When the test plants are at the 2- to 3-leaf stage,” for “pots. Immediately after sowing,”, “grown on” for “grown”, “of 2 to 3” for “of 4”, “Panicum, Euphorbia,” for “Panicum, Echinochloa (Ds),”

COc1cc(F)ccc1OCC#Cc1ccc(Cl)nc1 [1.004, 2-Chloro-5-[3-(4-fluoro-2-methoxy-phenoxy)-prop-1-ynyl]-pyridine]
Echinochloa (Ds), herbicidal rating (Echinochloa (Ds)): 2 | Panicum, herbicidal rating (Panicum): 2 | Chenopodium, herbicidal rating (Chenopodium [1]): 1 | Amaranthus, herbicidal rating (Amaranthus [2]): 1 | Veronica, herbicidal rating (Veronica [3]): 1 | Stellaria, herbicidal rating (Stellaria [4]): 1 | Chenopodium, herbicidal rating (Chenopodium [5]): 1 | Amaranthus, herbicidal rating (Amaranthus [6]): 1 | Veronica, herbicidal rating (Veronica [7]): 2 | Euphorbia, herbicidal rating (Euphorbia): 2 | Stellaria, herbicidal rating (Stellaria [8]): 2
